Data on ten molecules can be found in ChEMBL document CHEMBL1201862, “PubChem BioAssay data set” (2004).

The structures appear in SMILES notation.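 Results reflect a 48-hour exposure of cells in 96-well plates to compound at five concentrations. Here, GI50 denotes the concentration required for 50% inhibition of growth.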 The source made the active and inactive calls. Rule as the data show it: active = GI50 up to about 1.1 µM and inactive = higher.

Among the test systems are SK-MEL-28; HOP-62; MDA-MB-231; KM12; CAKI-1; LOX IMVI; RPMI-8226; SF-268; HOP-92; NCI-H460; MDA-N; EKVX; CCRF-CEM; Malme-3M; DU-145; HT-29; SK-MEL-5; SR; SW-620; UACC-62.
Common to all, as to experiment: inhibition of tumour cell growth, NCI panel, 48 h

For `COC(=O)CCCCC/C(=C\C(=O)C(Cl)(Cl)Cl)OC`, the GI50 was 32.9 µM (inactive) with SK-MEL-28; 33.7 µM (inactive) with HOP-62; 80 µM (inactive) in the assay with MDA-MB-231; 26.4 µM (inactive) in the assay on KM12; 30.8 µM (inactive) with CAKI-1; 20.9 µM (inactive) in the assay on LOX IMVI. Moreover, the GI50 in the assay on RPMI-8226 was 20.4 µM (inactive); in the assay on SF-268, 24.4 µM (inactive); in the assay with HOP-92, 26.1 µM (inactive); in the assay on NCI-H460, 28.3 µM (inactive); in the assay on MDA-N, 24 µM (inactive); in the assay on EKVX it was 24.7 µM (inactive). Besides, the GI50 was 15.4 µM (inactive) in the assay on CCRF-CEM; 21.1 µM (inactive) with Malme-3M; 25.5 µM (inactive) in the assay on DU-145; 30.5 µM (inactive) in the assay with HT-29; 38.8 µM (inactive) in the assay with SK-MEL-5; 18.1 µM (inactive) in the assay with SR. Moreover, the GI50 was 31.7 µM (inactive) in the assay on SW-620 and 36 µM (inactive) in the assay with UACC-62.
For the molecule `CCCCCCCc1c(Cl)nc(Cl)nc1Cl`, the GI50 is 7.11 µM (inactive) in the assay on SK-MEL-28; 18.6 µM (inactive) in the assay on HOP-62; 3.52 µM (inactive) in the assay on MDA-MB-231; 11.2 µM (inactive) with KM12; 2.38 µM (inactive) with CAKI-1; 1.45 µM (inactive) in the assay with LOX IMVI. Moreover, the GI50 in the assay on RPMI-8226 was 2.84 µM (inactive); with SF-268, 4.66 µM (inactive); with HOP-92, 4.5 µM (inactive); in the assay on NCI-H460, 12.8 µM (inactive); in the assay with MDA-N, 3.75 µM (inactive); in the assay with EKVX, 8.77 µM (inactive). In addition, the GI50 in the assay with CCRF-CEM is 0.494 µM (active); with Malme-3M, 3.01 µM (inactive); in the assay on DU-145, 14.3 µM (inactive); in the assay with HT-29, 4.04 µM (inactive); in the assay with SK-MEL-5, 4.31 µM (inactive); in the assay with SR, 0.604 µM (active). Also, the results for the GI50 in the assay on SW-620 and with UACC-62 were 2.68 µM (inactive) and 5.82 µM (inactive), respectively.
Consider `COc1cc2c(cc1OC)C(SC)C(=O)N(Cc1cccc(OC)c1OC)CC2` (stereo not given), for which the GI50 with SK-MEL-28 is 1.99 µM (inactive); in the assay on HOP-62, 2.75 µM (inactive); with MDA-MB-231, 5.48 µM (inactive); with KM12 it was 2.65 µM (inactive); in the assay with CAKI-1, 13.6 µM (inactive); in the assay on LOX IMVI, 2.1 µM (inactive). Further, the GI50 is 3.61 µM (inactive) with RPMI-8226; 4.67 µM (inactive) with SF-268; 0.861 µM (active) in the assay on HOP-92; 1.09 µM (active) in the assay with NCI-H460; 0.297 µM (active) in the assay with MDA-N; 4.7 µM (inactive) with EKVX. Also, the GI50 in the assay with CCRF-CEM is 3.61 µM (inactive); with Malme-3M, 3.15 µM (inactive); with DU-145 it was 2.51 µM (inactive); in the assay with HT-29, 1.03 µM (active); in the assay on SK-MEL-5 it was 0.703 µM (active); in the assay with SR, 0.912 µM (active). Besides, the GI50 is 1.49 µM (inactive) with SW-620 and 0.731 µM (active) in the assay with UACC-62.
Turning to `O=c1[nH]nc(Cc2ccc(Cl)cc2)n1O`, the GI50 with SK-MEL-28, in the assay on HOP-62, in the assay on MDA-MB-231, in the assay on KM12, in the assay with CAKI-1 and in the assay with LOX IMVI was > 100 µM (inactive) each time. Also, the GI50 in the assay with RPMI-8226, in the assay with SF-268, with HOP-92, in the assay on NCI-H460, in the assay with MDA-N and in the assay with EKVX was > 100 µM (inactive) in each case. Besides, the GI50 with CCRF-CEM, in the assay on Malme-3M, with DU-145, in the assay on HT-29, with SK-MEL-5 and with SR was > 100 µM (inactive) each time. In addition, the GI50 in the assay on SW-620 and in the assay with UACC-62 was > 100 µM (inactive) in each case.
On to `Nc1nc(Cl)c(N)c(NCC2(CO)CC(O)C2)n1` (stereo not given), for which the GI50 with SK-MEL-28, in the assay with HOP-62, in the assay with MDA-MB-231, in the assay with KM12, in the assay on CAKI-1 and in the assay with LOX IMVI was > 100 µM (inactive) throughout. The GI50 with RPMI-8226, in the assay with SF-268, in the assay with HOP-92, with NCI-H460, with MDA-N and with EKVX was > 100 µM (inactive) each time. Also, the GI50 in the assay on CCRF-CEM, in the assay on Malme-3M, in the assay on DU-145, in the assay with HT-29, in the assay on SK-MEL-5 and in the assay with SR was > 100 µM (inactive) each time. The GI50 in the assay with SW-620 and in the assay with UACC-62 was > 100 µM (inactive) each time.
In the case of `C/C(=C/CNc1ncnc2c1ncn2CCC#N)CO`, the GI50 with SK-MEL-28, in the assay on HOP-62, with MDA-MB-231, in the assay on KM12, in the assay with CAKI-1 and with LOX IMVI was > 100 µM (inactive) each time. Moreover, the GI50 in the assay with RPMI-8226, in the assay on SF-268, in the assay on HOP-92, with NCI-H460, with MDA-N and with EKVX was > 100 µM (inactive) each time. Also, the GI50 in the assay on CCRF-CEM, in the assay with Malme-3M, in the assay with DU-145, in the assay with HT-29, with SK-MEL-5 and in the assay on SR was > 100 µM (inactive) in each case. The GI50 with SW-620 and with UACC-62 was > 100 µM (inactive) throughout.
On to `O=c1c2ncn(C3CCCCO3)c2n(-c2ccccc2)c(=S)n1-c1ccccc1` (stereo not given), for which the GI50 with SK-MEL-28 was > 68.1 µM (inactive); in the assay with HOP-62, 10.4 µM (inactive); in the assay with MDA-MB-231, 26.2 µM (inactive); in the assay with KM12 it was > 76.4 µM (inactive); with CAKI-1 it was 42.4 µM (inactive); in the assay on LOX IMVI, 56.5 µM (inactive). In addition, the GI50 in the assay on RPMI-8226 was > 52.7 µM (inactive); with SF-268, 11 µM (inactive); in the assay with HOP-92, 9.91 µM (inactive); with NCI-H460, > 54.8 µM (inactive); with MDA-N it was > 66.1 µM (inactive); with EKVX it was 39.5 µM (inactive). The GI50 in the assay on CCRF-CEM is > 83 µM (inactive); in the assay on Malme-3M, > 41.5 µM (inactive); in the assay on DU-145, > 71.3 µM (inactive); in the assay with HT-29, > 76.4 µM (inactive); with SK-MEL-5, > 74.3 µM (inactive); in the assay on SR it was > 4.65 µM (inactive). Also, the GI50 in the assay on SW-620 is > 65.9 µM (inactive); in the assay with UACC-62 it was 18.5 µM (inactive).
On to `Cc1ccc(S[C@@H](C)[C@@](O)(C(N)=O)c2ccccc2)cc1`, for which the GI50 in the assay with SK-MEL-28 was > 100 µM (inactive); with HOP-62, 23.6 µM (inactive); with MDA-MB-231 it was 19.2 µM (inactive); in the assay on KM12 it was 40.8 µM (inactive); with CAKI-1, 16.6 µM (inactive); in the assay on LOX IMVI, 14.7 µM (inactive). The GI50 in the assay on RPMI-8226 was 21.7 µM (inactive); with SF-268 it was > 100 µM (inactive); in the assay with HOP-92, 18.7 µM (inactive); in the assay on NCI-H460, 85.1 µM (inactive); with MDA-N, 33.8 µM (inactive); in the assay on EKVX, 13.9 µM (inactive). The GI50 with CCRF-CEM was 7.67 µM (inactive); in the assay on Malme-3M it was 21 µM (inactive); in the assay on DU-145 it was 72.9 µM (inactive); in the assay with HT-29, 41.3 µM (inactive); in the assay with SK-MEL-5, 20.6 µM (inactive); in the assay with SR, > 10 µM (inactive). The GI50 in the assay on SW-620 was 39 µM (inactive); in the assay on UACC-62 it was 40.3 µM (inactive).
Turning to `COC(=O)/C=C\C(C#N)(C#N)/N=C/c1ccc(C)s1`, the GI50 was 4.28 µM (inactive) with SK-MEL-28; 14.9 µM (inactive) in the assay with HOP-62; 5.61 µM (inactive) in the assay on MDA-MB-231; 13.1 µM (inactive) in the assay on KM12; 1.94 µM (inactive) in the assay with CAKI-1; 1.67 µM (inactive) with LOX IMVI. The GI50 in the assay on RPMI-8226 is 1.9 µM (inactive); with SF-268 it was 6.82 µM (inactive); in the assay on HOP-92 it was 1.64 µM (inactive); with NCI-H460, 19.3 µM (inactive); with MDA-N, 2.49 µM (inactive); in the assay with EKVX it was 5.31 µM (inactive). Besides, the GI50 in the assay with CCRF-CEM is 0.0847 µM (active); with Malme-3M, 1.6 µM (inactive); in the assay on DU-145 it was 4.48 µM (inactive); in the assay on HT-29 it was 1.51 µM (inactive); in the assay with SK-MEL-5 it was 6.92 µM (inactive); with SR it was 2.08 µM (inactive). Moreover, the GI50 in the assay on SW-620 is 0.668 µM (active); in the assay on UACC-62, 15.2 µM (inactive).
For the molecule `COC(=O)c1ccccc1CC1Cc2ccc3c(c2C1)CCC3` (stereo not given), the GI50 with SK-MEL-28 is 46 µM (inactive); in the assay with HOP-62, 38.9 µM (inactive); with MDA-MB-231 it was 19.5 µM (inactive); in the assay on KM12, 30.1 µM (inactive); in the assay with CAKI-1, 45.5 µM (inactive); in the assay on LOX IMVI, 16 µM (inactive). The GI50 with RPMI-8226 was 18.1 µM (inactive); in the assay with SF-268, 41.3 µM (inactive); in the assay with HOP-92 it was 20.1 µM (inactive); in the assay with NCI-H460, 30.1 µM (inactive); in the assay with MDA-N it was 34 µM (inactive); with EKVX it was 17.3 µM (inactive). In addition, the GI50 in the assay on CCRF-CEM was 17.9 µM (inactive); with Malme-3M it was 19.4 µM (inactive); in the assay on DU-145 it was 45.1 µM (inactive); in the assay on HT-29, 20 µM (inactive); in the assay on SK-MEL-5 it was 22.1 µM (inactive); in the assay with SR, 5.38 µM (inactive). For the same molecule, the GI50 in the assay with SW-620 is 39.4 µM (inactive); in the assay with UACC-62 it was 38.5 µM (inactive).
